Test results as given in patent US10633354B2, “Substituted tricyclic heterocyclic compounds” (BRISTOL-MYERS SQUIBB COMPANY, priority 2016, dated 2020).

Legend:
S1P1 = target: T1, S1P1 (Homo sapiens, UniProt P21453); assay: Receptor [35S] GTPγS binding assay (S1P1 GTPγS); format: biochemical; settings: membranes from S1P1/CHO cells; for S1P1 GTPgS (Ymax): maximal response; for EC50: phosphorylated compounds, read-out: S1P1 GTPgS (EC50)
T1 construct: expressed in transfected cells; host or cells: CHO cells (S1P1/CHO), membranes
T1 sequence (P21453 whole entry): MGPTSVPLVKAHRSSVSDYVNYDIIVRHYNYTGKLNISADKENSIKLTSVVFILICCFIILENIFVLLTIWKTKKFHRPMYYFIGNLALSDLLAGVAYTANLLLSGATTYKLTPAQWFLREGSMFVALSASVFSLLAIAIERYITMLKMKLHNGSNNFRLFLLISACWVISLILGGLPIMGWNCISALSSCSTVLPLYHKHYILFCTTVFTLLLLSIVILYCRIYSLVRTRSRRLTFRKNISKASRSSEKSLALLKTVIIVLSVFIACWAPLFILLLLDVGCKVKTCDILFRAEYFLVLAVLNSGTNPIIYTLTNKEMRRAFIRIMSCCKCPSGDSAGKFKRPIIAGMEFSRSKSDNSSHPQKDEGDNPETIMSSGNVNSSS
Experimental: (§1) The compounds of Formula (I), Formula (II), Formula (III), and Formula (IV), and salts thereof in which R2 is —OH, engage their biological targets (e.g. S1P1) after bioactivation through phosphorylation of the alcohol to provide an active phosphate ester compound of Formula (I), Formula (II), Formula (III), and Formula (IV), or salts thereof, in which R2 is —OP(O)(OH)2. In vitro characterization of biological activity of the examples was conducted on synthetically prepared samples of the phosphorylated compounds.
(§2) Receptor [^35S] GTPyS Binding Assays: (S1P1 GTPyS/S1P3 GTPyS)
(§3) Compounds were loaded in a 384 Falcon v-bottom plate (0.5 μl/well in a 11 point, 3-fold dilution). Membranes prepared from S1Pi/CHO cells or EDG3-Ga15-bla HEK293T cells (EDG3 equivalent S1P3) were added to the compound plate (40 μl/well, final protein 3 μg/well) with MULTIDROP®. [^35S] GTP (1250 Ci/mmol, Perkin Elmer) was diluted in assay buffer: 20 mM HEPES, pH7.5, 10 mM MgCl2, 150 mM NaCl, 1 mM EGTA (ethylene glycol tetraacetic acid), 1 mM DTT (Dithiothreitol), 10 μM GDP, 0.1% fatty acid free BSA, and 10 μg/ml Saponin to 0.4 nM. 40 μl of the [^35S] GTP solution was added to the compound plate with a final concentration of 0.2 nM. The reaction mixture was kept at room temperature for 45 min. At the end of incubation, all the mixtures in the compound plate were transferred to Millipore 384-well FB filter plates via the VELOCITY 11® Vprep liquid handler. The filter plate was washed with water 4 times by using the manifold Embla plate washer and dried at 60° C. for 45 min. MicroScint 20 scintillation fluid (30 μl) was added to each well for counting on the Packard TOPCOUNT®. ECso is defined as the agonist concentration that corresponds to 50% of the Ymax (maximal response) obtained for each individual compound tested.
(§4) A smaller value for GTPyS S1 P1 EC50 value indicated greater activity for the compound in the GTPyS S1P1 binding assay. A larger value for the GTPyS S1 P3 EC50 value indicated less activity in the GTPyS S1 P3 binding assay (Table A).

S1P3 = target: T2, S1P3 (Homo sapiens, UniProt Q99500); assay: Receptor [35S] GTPγS binding assay (S1P3 GTPγS); format: biochemical; settings: membranes from EDG3-Ga15-bla HEK293T cells; read-out: S1P3 GTPgS (EC50)
T2 construct: expressed in transfected cells; host or cells: HEK293T cells (EDG3-Ga15-bla), membranes
T2 sequence (Q99500 whole entry): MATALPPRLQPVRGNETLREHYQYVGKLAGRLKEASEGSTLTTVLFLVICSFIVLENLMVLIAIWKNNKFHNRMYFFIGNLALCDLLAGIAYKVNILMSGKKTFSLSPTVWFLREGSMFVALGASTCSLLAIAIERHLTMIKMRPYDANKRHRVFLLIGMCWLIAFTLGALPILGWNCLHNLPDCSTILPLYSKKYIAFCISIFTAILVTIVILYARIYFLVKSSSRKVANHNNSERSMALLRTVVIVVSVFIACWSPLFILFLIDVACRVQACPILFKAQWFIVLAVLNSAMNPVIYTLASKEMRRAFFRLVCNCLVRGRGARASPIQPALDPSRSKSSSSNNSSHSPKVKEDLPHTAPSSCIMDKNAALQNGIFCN
Experimental: as §1, §2, §3, §4

SMILES | S1P1 GTPgS (Ymax) (S1P1) [%] | EC50 (S1P1) [nM] | EC50 (S1P3) [nM]
CCCCOCCOc1nc2c(s1)-c1ccc([C@H]3CC[C@](N)(COP(=O)(O)O)C3)cc1CC2 [Example 26, ((1R,3S)-1-amino-3-(2-(2-butoxyethoxy)-4,5-dihydronaphtho[2,1-d]thiazol-7-yl)cyclopentyl)methyl Dihydrogen Phosphate] | 107 | 1 | 190
CCCc1nc2c(s1)-c1ccc([C@H]3CC[C@](N)(COP(=O)(O)O)C3)cc1CC2 [Example 28] | 79 | 19 | > 3000
CCCCNc1nc2c(s1)-c1ccc([C@H]3CC[C@](N)(COP(=O)(O)O)C3)cc1CC2 [Example 32, ((1R,3S)-1-amino-3-(2-(butylamino)-4,5-dihydronaphtho[2,1-d]thiazol-7-yl)cyclopentyl)methyl dihydrogen phosphate] | 49 | 133 | > 3000

More lines, now with the values ahead:

S1P1 GTPgS (Ymax) (S1P1) [%] | EC50 (S1P1) [nM] | EC50 (S1P3) [nM] | SMILES
98 | 10 | > 3000 | CCCCCCCc1nc2c(s1)-c1ccc([C@H]3CC[C@](N)(COP(=O)(O)O)C3)cc1CC2 [Example 27]
58 | 30 | > 3000 | CCCCOc1nc2c(s1)-c1ccc([C@H]3CC[C@](N)(COP(=O)(O)O)C3)cc1CC2 [Example 29]
102 | 12 | > 3000 | CCCCCCOc1nc2c(s1)-c1ccc([C@H]3CC[C@](N)(COP(=O)(O)O)C3)cc1CC2 [Example 30, ((1R,3S)-1-amino-3-(2-(hexyloxy)-4,5-dihydronaphtho[2,1-d]thiazol-7-yl)cyclopentyl) methyl dihydrogen phosphate]
58 | 20 | > 3000 | CCCCSc1nc2c(s1)-c1ccc([C@H]3CC[C@](N)(COP(=O)(O)O)C3)cc1CC2 [Example 31, ((1R,3S)-1-amino-3-(2-(butylthio)-4,5-dihydronaphtho[2,1-d]thiazol-7-yl)cyclopentyl)methyl dihydrogen phosphate]
